# Test results published in US20190337924A1, “SUBSTITUTED HYDANTOIN AND THIOHYDANTOIN DERIVATIVES AS ANDROGEN RECEPTOR ANTAGONISTS” (Janssen Pharmaceutica NV, priority 2016, published 2019).
# Where a name gives a salt, the structure may show the parent alone. Read-outs that look alike come from different tables or passages of the source.
# Legend:
# Format in all cases: cell-based
# LNCaP WT = assay: LNCaP Proliferation Assay, LNCaP WT; settings: Homo sapiens, 96 h, 1% CSS, 4 days, CellTiter-Glo, normalized to 0.1 nM R1881 stimulation
# Method: (§1) LNCaP cells were expanded in RPMI 10% FBS in T150 flasks. The cells were dislodged with 0.25% Trypsin, washed in complete media, centrifuged (300 g, 3 min), and the supernatant aspirated. The cells were resuspended in RPMI phenol-red free media with 1% charcoal-stripped serum (CSS) and counted using a ViCELL (Beckman-Coulter). 7500 cells were added to each well of a white optical bottom 384-well plate and incubated for 2 days at 37° C. 5% CO2. Compound dilutions were prepared in RPMI CSS using 50 mM stock solutions and added to the cells either alone (agonist mode) or in combination with 0.1 nM R1881 (antagonist mode). The plates were incubated for 4 days, followed by addition of CellTiter-Glo Luminescent Cell Viability kit reagent (Promega). The plates were placed on a shaker at 3000 rpm for 10 minutes and then read on an EnVision plate reader (Perkin Elmer) using Luminescence assay default settings. The data was analyzed, normalized to 0.1 nM R1881 stimulation, and plotted in GraphPad Prism.
# [1] = target: T1, wild-type Androgen Receptor (AR-wt) (Homo sapiens, UniProt P10275); assay: AR reporter assay, LNCaP-AR-wt AG (agonist mode); settings: for Emax: read-out: LNCaP-AR-wt AG MAX % Stim
# T1 construct: expressed in transfected cells; host or cells: LNCaP
# T1 sequence (P10275 1-920): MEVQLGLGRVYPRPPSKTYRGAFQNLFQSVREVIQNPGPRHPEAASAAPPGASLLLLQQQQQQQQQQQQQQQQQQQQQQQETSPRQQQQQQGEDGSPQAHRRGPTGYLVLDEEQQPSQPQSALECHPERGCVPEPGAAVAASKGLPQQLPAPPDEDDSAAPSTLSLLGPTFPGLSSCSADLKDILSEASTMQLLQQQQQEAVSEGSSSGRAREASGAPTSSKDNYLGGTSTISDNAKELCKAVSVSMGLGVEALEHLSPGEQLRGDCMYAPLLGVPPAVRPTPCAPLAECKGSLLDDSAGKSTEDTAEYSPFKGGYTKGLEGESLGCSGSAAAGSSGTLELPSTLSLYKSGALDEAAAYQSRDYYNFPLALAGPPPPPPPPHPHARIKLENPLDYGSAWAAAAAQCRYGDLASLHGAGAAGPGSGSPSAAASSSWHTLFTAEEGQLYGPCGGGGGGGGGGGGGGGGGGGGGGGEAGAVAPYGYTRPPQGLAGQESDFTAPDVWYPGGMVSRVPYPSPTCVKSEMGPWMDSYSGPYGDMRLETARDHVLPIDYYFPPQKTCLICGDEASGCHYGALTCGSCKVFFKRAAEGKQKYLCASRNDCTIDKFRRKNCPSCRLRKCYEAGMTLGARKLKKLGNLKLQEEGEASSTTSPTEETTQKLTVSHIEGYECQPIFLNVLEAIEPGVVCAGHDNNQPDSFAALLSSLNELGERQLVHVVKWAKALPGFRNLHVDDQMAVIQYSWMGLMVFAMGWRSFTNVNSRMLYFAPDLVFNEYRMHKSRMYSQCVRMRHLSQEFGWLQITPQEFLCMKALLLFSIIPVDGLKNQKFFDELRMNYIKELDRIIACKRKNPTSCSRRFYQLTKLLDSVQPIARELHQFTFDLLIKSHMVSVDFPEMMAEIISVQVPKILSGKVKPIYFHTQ
# Description: LNCaP AR (cs) and LNCaP F876L luciferase cell lines were generated by transduction of each cell line (description of cell line generation Joseph J D, Lu N, Qian J, Sensintaffar J, Shao G, Brigham D, Moon M, Maneval E C, Chen I, Darimont B, Hager J H. A clinically relevant androgen receptor mutation confers resistance to second-generation antiandrogens enzalutamide and ARN-509. Cancer Discov 2013; 3:1020-1029) with an Androgen Response Element Firefly Luciferase lentiviral construct at an MOI (multiplicity of infection) of 50 following the manufacturer's instructions (Qiagen). A stable pooled-population cell line was generated using puromycin (Life Technologies) selection at 1:10,000 v/v. The protocol below was used for both cell lines and for testing of the compounds of Formula (I) of the present invention.
# LNCaP cells were grown to about 80% confluence, media removed and cells rinsed in Hank's balanced salt solution prior to separation from the plate with 0.05% Trypsin EDTA. Cells were lifted and trypsin negated in complete CSS (charcoal stripped serum) culture media. CSS was maintained on cells for 24 h prior to assay, at which time 5,000 cells/[…] were seeded in Greiner 384 well White/White Tissue Culture Treated Plates and incubated for a further 1-2 hours at 37° C., 5% CO2, prior to addition of 10 μL of 4× Test Compounds (compounds described herein) or Assay Controls (all diluted in complete media containing 10% css). A further 10 μL of 4× R-1881 Agonist Challenge (antagonist assay) or Buffer (agonist assay) was then added (all diluted in complete media containing 10% css). Agonist challenge was at 400 pM for WT assay and 600 pM for F876L assay. Plates containing cells and compounds herein were incubated for a further 20-24 hours at 37° C., 5% CO2 before addition of 40 μL/well of Steady-Glo Luciferase Assay System Reagent (Promega#E2520). After 1 h, plates were read for luminescence on a BMG Pherastar.
# ((Sample RLU−Ave Low Control RLU[DMSO/Buffer])/(Ave High Control RLU [1 μM R-1881]—Ave Low Control RLU[DMSO/Buffer]))*100.
# EC/IC50 calculations were achieved utilizing calculated RLU data and data fitting macros. Data were fit using least-squares methods to the following formula: […]
# As used herein: • pIC50 is defined as −Log10(IC50 expressed in [Molar]). • pEC50 is defined as −Log10(EC50 expressed in [Molar]). • MAX % Inh is defined as the maximum % inhibition of R1881 control response observed for a compound over the tested concentration range. • MAX % Stim is defined as the maximum % stimulation (agonist response) observed for a compound over the tested concentration range. • LNCaP-AR-wt ANT refers to the reporter assay using LNCaP cells stably transfected with the Androgen Response Element Firefly Luciferase lentiviral construct and wild-type Androgen Receptor (AR-wt) in Antagonist mode. • LNCaP-AR-wt AG refers to the reporter assay using LNCaP cells stably transfected with the Androgen Response Element Firefly Luciferase lentiviral construct and wild-type Androgen Receptor (AR-wt) in Agonist mode. • LNCaP-AR-F876L ANT refers to the reporter assay using LNCaP cells stably transfected with the Androgen Response Element Firefly Luciferase lentiviral construct and F876L mutant Androgen Receptor (AR-F876L) in Antagonist mode. • LNCaP-AR-F876L AG refers to the reporter assay using LNCaP cells stably transfected with the Androgen Response Element Firefly Luciferase lentiviral construct and F876L mutant Androgen Receptor (AR-F876L) in Agonist mode.
# LNCaP F876L = assay: LNCaP Proliferation Assay, LNCaP F876L; settings: Homo sapiens, 96 h, 1% CSS, 4 days, CellTiter-Glo, normalized to 0.1 nM R1881 stimulation
# Method: as §1
SMILES,IC50 (LNCaP WT) [µM],EC50 [1] [µM],Emax [1] [%],IC50 (LNCaP F876L) [µM],"EC50 ([1]; agonist mode (buffer, no R-1881), -Log10(EC50 in Molar), read-out: LNCaP-AR-wt AG pEC50 (converted)) [µM]"
"CC1(C)C(=O)N(c2ccc(C#N)c(C(F)(F)F)c2)C(=S)N1c1cnc(OC2CCNCC2)nc1 [Compound 5, 4-(4,4-Dimethyl-5-oxo-3-(2-(piperidin-4-yloxy)pyrimidin-5-yl)-2-thioxoimidazolidin-1-yl)-2-(trifluoromethyl)benzonitrile]",1.04,> 15.1,0.1,0.95,
"CC1(C)C(=O)N(c2ccc(C#N)c(Cl)c2)C(=S)N1c1ccc(OC2CCNCC2)cc1 [Compound 7, 2-Chloro-4-(4,4-dimethyl-5-oxo-3-(4-(piperidin-4-yloxy)phenyl)-2-thioxoimidazolidin-1-yl)benzonitrile hydrochloride]",10,> 15.1,0,31.2,
"CN1CCC(Oc2ccc(N3C(=S)N(c4ccc(C#N)c(Cl)c4)C(=O)C3(C)C)cn2)CC1 [Compound 10, 2-Chloro-4-(4,4-dimethyl-3-(6-((1-methylpiperidin-4-yl)oxy)pyridin-3-yl)-5-oxo-2-thioxoimidazolidin-1-yl)benzonitrile hydrochloride]",0.46,> 15.1,0.1,0.83,
"CN1CCC(Oc2ccc(N3C(=S)N(c4ccc(C#N)c(C(F)(F)F)c4)C(=O)C34CCC4)cn2)CC1 [Compound 14, 4-(5-(6-((1-Methylpiperidin-4-yl)oxy)pyridin-3-yl)-8-oxo-6-thioxo-5,7-diazaspiro[3.4]octan-7-yl)-2-(trifluoromethyl)benzonitrile]",2.44,> 15.1,0.2,1.25,
"N#Cc1ccc(N2C(=O)C3(CCC3)N(c3cnc(OC4CCNCC4)nc3)C2=S)cc1C(F)(F)F [Compound 15, 4-(8-Oxo-5-(2-(piperidin-4-yloxy)pyrimidin-5-yl)-6-thioxo-5,7-diazaspiro[3.4]octan-7-yl)-2-(trifluoromethyl)benzonitrile]",3.43,> 15.1,-0.2,1.53,
"Cc1cc(N2C(=O)C3(CCC3)N(c3ccc(OC4CCN(C)CC4)nc3)C2=S)ccc1C#N [Compound 18, 2-Methyl-4-(5-(6-((1-methylpiperidin-4-yl)oxy)pyridin-3-yl)-8-oxo-6-thioxo-5,7-diazaspiro[3.4]octan-7-yl)benzonitrile]",1.53,,0.6,0.84,> 15.1
"COc1cc(N2C(=O)C3(CCC3)N(c3ccc(OC4CCN(C)CC4)cc3)C2=S)ccc1C#N [Compound 19, 2-Methoxy-4-(5-(4-((1-methylpiperidin-4-yl)oxy)phenyl)-8-oxo-6-thioxo-5,7-diazaspiro[3.4]octan-7-yl)benzonitrile]",27.4,> 15.1,-0.1,21.4,
"COc1cc(N2C(=O)C3(CCC3)N(c3ccc(OC4CCN(C)CC4)nc3)C2=S)ccc1C#N [Compound 20, 2-Methoxy-4-(5-(6-((1-methylpiperidin-4-yl)oxy)pyridin-3-yl)-8-oxo-6-thioxo-5,7-diazaspiro[3.4]octan-7-yl)benzonitrile]",3.65,> 15.1,-0.1,1.69,
"N#Cc1ccc(N2C(=O)C3(CCC3)N(c3ccc(OC4CCNCC4)cc3)C2=S)cc1Cl [Compound 21, 2-Chloro-4-(8-oxo-5-(4-(piperidin-4-yloxy)phenyl)-6-thioxo-5,7-diazaspiro[3.4]octan-7-yl)benzonitrile]",2.23,> 15.1,0.1,3.78,
"CN1CCC(Oc2ccc(N3C(=S)N(c4ccc(C#N)c(Cl)c4)C(=O)C34CCC4)cc2)CC1 [Compound 22, 2-Chloro-4-(5-(4-((1-methylpiperidin-4-yl)oxy)phenyl)-8-oxo-6-thioxo-5,7-diazaspiro[3.4]octan-7-yl)benzonitrile]",2.83,> 15.1,-0.2,3.78,
